According to ChEMBL document CHEMBL3525922, “Significance of reductive metabolism in human intestine and quantitative prediction of intestinal first-pass metabolism by cytosolic reductive enzymes” (Drug Metab Dispos, 2013):
Blank lines part the entries; values can stand above or below the compound they belong to.

Assays:
[1] = tested on: Liver; assay: Drug level in human liver S9 fraction treated with 10 uM mebendazole after 19.80 to 20.76 mins by HPLC-MS analysis; assay type: ADME, subcellular
[2] = tested on: Liver cytosol; assay: Drug level in human liver cytosol treated with 10 uM mebendazole after 20.80 mins by HPLC-MS analysis; assay type: ADME, tissue-based; details: 0.346667 h
[3] = Drug level in human intestinal cytosol treated with 10 uM mebendazole after 20.74 mins by HPLC-MS analysis; assay type: ADME, Intestine; details: 0.345667 h
[4] = Drug level in human intestinal S9 fraction treated with 10 uM mebendazole 20.69 mins by HPLC-MS analysis; assay type: ADME, Intestine; details: s9, 0.344833 h
[5] = Drug metabolism in human intestinal cytosol at 200 nM after 60 mins in presence of flufenamic acid; assay type: ADME, Intestine; details: 1 h, 0.2 µM
[6] = Drug metabolism in human intestinal cytosol at 200 nM after 60 mins in presence of ondansetron; assay type: ADME, Intestine; details: 1 h, 0.2 µM
[7] = Apparent permeability of the compound at 50 uM at pH 7.4 after 240 mins by PAMPA; assay type: physicochemical
[8] = biological target: T1, carbonyl reductase (Carbonyl reductase [NADPH] 1) (Homo sapiens, UniProt P16152); assay: Activity of carbonyl reductase in liver cytosol (unknown origin) assessed as enzyme-mediated drug metabolism; assay type: ADME, tissue-based
T1 sequence (P16152 whole entry): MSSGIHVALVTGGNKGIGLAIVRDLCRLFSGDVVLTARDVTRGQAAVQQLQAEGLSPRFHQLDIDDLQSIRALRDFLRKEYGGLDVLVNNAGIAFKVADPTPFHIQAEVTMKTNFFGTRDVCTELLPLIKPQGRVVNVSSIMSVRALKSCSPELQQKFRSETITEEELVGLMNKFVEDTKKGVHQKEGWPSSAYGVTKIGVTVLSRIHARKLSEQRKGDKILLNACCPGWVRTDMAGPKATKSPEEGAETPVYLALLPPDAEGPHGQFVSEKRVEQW

[9] = biological target: T1, carbonyl reductase (Carbonyl reductase [NADPH] 1); assay: Activity of recombinant carbonyl reductase (unknown origin); assay type: ADME
[10] = tested on: Liver microsome; assay: Unbound intrinsic clearance in human liver microsomes at 50 to 1000 nM after 30 to 60 mins by HPLC-MS/MS analysis; assay type: ADME; details: 1 µM
[11] = Metabolic stability in human intestinal microsomes assessed as compound remaining at 50 to 1000 nM after 60 mins by HPLC-MS/MS analysis; assay type: ADME, Intestine, Microsome; details: read-out: Stability
[12] = Intrinsic clearance in human intestinal microsomes at 50 to 1000 nM after 60 mins by HPLC-MS/MS analysis; assay type: ADME, Intestine, Microsome; details: 1 h, 1 µM
[13] = Metabolic stability in human intestinal S9 fraction assessed as compound remaining at 50 to 1000 nM after 60 mins by HPLC-MS/MS analysis; assay type: ADME, Intestine; details: read-out: Stability
[14] = Intrinsic clearance in human intestinal S9 fraction at 50 to 1000 nM after 60 mins by HPLC-MS/MS analysis; assay type: ADME, Intestine; details: s9, 1 h, 1 µM
[15] = Metabolic stability in human intestinal S9 fraction assessed as compound remaining at 50 to 1000 nM after 60 mins by HPLC-MS/MS analysis in presence of NADH; design: dose or concentration left out as unconfirmed
[16] = Metabolic stability in human intestinal cytosol at 200 nM after 30 mins in presence of menadione; assay type: ADME, Intestine; details: 0.5 h, 0.2 µM
[17] = Drug metabolism in human intestinal cytosol at 200 nM after 30 mins in presence of flufenamic acid; assay type: ADME, Intestine; details: 0.5 h, 0.2 µM
[18] = Drug metabolism in human intestinal cytosol at 200 nM after 30 mins in presence of ondansetron; assay type: ADME, Intestine; details: 0.5 h, 0.2 µM
[19] = tested on: Liver microsome; assay: Drug metabolism in human liver microsomes assessed as hydrolyzed metabolite formation at 10 uM after 19.83 mins by HPLC-MS analysis; assay type: ADME; details: 0.3305 h
[20] = tested on: Liver cytosol; assay: Drug metabolism in human liver cytosol assessed as reductive metabolite formation at 10 uM after 20.80 mins by HPLC-MS analysis; assay type: ADME, tissue-based; details: 0.346667 h
[21] = Drug metabolism in human liver S9 fraction assessed as hydrolyzed metabolite formation at 10 uM after 19.80 mins by HPLC-MS analysis; assay type: ADME, subcellular; details: s9, 0.33 h
[22] = Drug metabolism in human liver S9 fraction assessed as reductive metabolite formation at 10 uM after 20.76 mins by HPLC-MS analysis; assay type: ADME, subcellular; details: s9, 0.346 h
[23] = Drug metabolism in human intestinal cytosol assessed as reductive metabolite formation at 10 uM after 20.74 mins by HPLC-MS analysis; assay type: ADME, Intestine; details: 0.345667 h
[24] = Drug metabolism in human intestinal S9 fraction assessed as reductive metabolite formation at 10 uM after 20.69 mins by HPLC-MS analysis; assay type: ADME, Intestine; details: s9, 0.344833 h
[25] = human, s9, 1 h, 1 µM
[26] = Unbound intrinsic clearance in human intestinal microsomes at 50 to 1000 nM after 30 to 60 mins by HPLC-MS/MS analysis; assay type: ADME, Intestine, Microsome; details: 1 µM
[27] = Unbound intrinsic clearance in human intestinal cytosol at 50 to 1000 nM after 30 to 60 mins by HPLC-MS/MS analysis; assay type: ADME, Intestine; details: 1 µM
[28] = tested on: Liver cytosol; assay: Unbound intrinsic clearance in human liver cytosol at 50 to 1000 nM after 30 to 60 mins by HPLC-MS/MS analysis; assay type: ADME, tissue-based; details: 1 µM
[29] = Unbound intrinsic clearance in human intestinal S9 fraction at 50 to 1000 nM after 30 to 60 mins by HPLC-MS/MS analysis; assay type: ADME, Intestine; details: s9, 1 µM
[30] = tested on: Liver; assay: Unbound intrinsic clearance in human liver S9 fraction at 50 to 1000 nM after 30 to 60 mins by HPLC-MS/MS analysis; assay type: ADME, subcellular; details: s9, 1 µM
[31] = Unbound intrinsic clearance in human intestinal S9 fraction at 50 to 1000 nM after 30 to 60 mins by HPLC-MS/MS analysis in presence of NADH; assay type: ADME, Intestine; details: s9, 1 µM
[32] = Unbound intrinsic clearance in human intestinal S9 fraction at 50 to 1000 nM after 30 to 60 mins by HPLC-MS/MS analysis in presence of NADPH; assay type: ADME, Intestine; details: s9, 1 µM
[33] = Metabolic stability in human intestinal cytosol at 200 nM after 60 mins in presence of menadione; assay type: ADME, Intestine; details: 1 h, 0.2 µM

Drug metabolism [2]: metabolite_detected
Drug metabolism [1]: metabolite_detected
Drug metabolism [3]: metabolite_detected
Drug metabolism [4]: metabolite_detected
Compound: COC(=O)Nc1nc2ccc(C(O)c3ccccc3)cc2[nH]1 (stereo unspecified)

CL free [10]: 9 µL/min/mg
remaining at 1 h, up to 1 µM [11]: > 90%
CL [12]: < 8.8 µL/min/mg
remaining at 1 h, up to 1 µM [13]: > 90%
CL [14]: < 1.8 µL/min/mg
remaining at 1 h [15]: > 90%
Stability [16]: Stable
Drug metabolism [17]: metabolite_detected
Drug metabolism [18]: metabolite_detected
Papp at 4 h, 50 µM [7]: 48.5 ×10⁻⁶ cm/s
Drug metabolism [19]: metabolite_detected
Drug metabolism [20]: metabolite_detected
Drug metabolism [21]: metabolite_detected
Drug metabolism [22]: metabolite_detected
Drug metabolism [23]: metabolite_detected
Drug metabolism [24]: metabolite_detected
CL [25]: < 1.8 µL/min/mg
Compound: COC(=O)Nc1nc2ccc(C(=O)c3ccccc3)cc2[nH]1 [MEBENDAZOLE]

The next lines start with the compound.

Compound: Nc1nc2ccc(C(=O)c3ccccc3)cc2[nH]1
Drug metabolism [1]: metabolite_detected

Compound: O=C(CCCN1CCC(O)(c2ccc(Cl)cc2)CC1)c1ccc(F)cc1 [HALOPERIDOL]
Drug metabolism [5]: metabolite_detected
Drug metabolism [6]: metabolite_detected
Papp at 4 h, 50 µM [7]: 33.7 ×10⁻⁶ cm/s
Km [8]: 250 µM
Km [9]: 1200 µM

Compound: O=C1Cc2cc(CCN3CCN(c4nsc5ccccc45)CC3)c(Cl)cc2N1 [ZIPRASIDONE]
CL free [26]: 29 µL/min/mg
CL free [10]: 118 µL/min/mg
CL free [27]: 15 µL/min/mg
CL free [28]: 23 µL/min/mg
CL free [29]: 28 µL/min/mg
CL free [30]: 89 µL/min/mg
remaining at 1 h, up to 1 µM [13]: > 90%
CL [14]: < 1.8 µL/min/mg
CL free [31]: 15 µL/min/mg
CL free [32]: 28 µL/min/mg
Stability [33]: Stable
Drug metabolism [5]: metabolite_detected
Drug metabolism [6]: metabolite_detected
Papp at 4 h, 50 µM [7]: 67.2 ×10⁻⁶ cm/s
